# Data as given in patent publication US20110082114A1, “Methods of Treating Aneurysmal Dilatation, Blood Vessel Wall Weakness and Specifically Abdominal Aortic and Thoracic Aneurysm Using Matrix Metalloprotease-2 Inhibitors” (SYMPHONY EVOLUTION, INC., priority 2009, published 2011).
# Target: T1, mADAM-10 or hADAM-10 (UniProt O14672)
# T1 sequence (O14672 1-748): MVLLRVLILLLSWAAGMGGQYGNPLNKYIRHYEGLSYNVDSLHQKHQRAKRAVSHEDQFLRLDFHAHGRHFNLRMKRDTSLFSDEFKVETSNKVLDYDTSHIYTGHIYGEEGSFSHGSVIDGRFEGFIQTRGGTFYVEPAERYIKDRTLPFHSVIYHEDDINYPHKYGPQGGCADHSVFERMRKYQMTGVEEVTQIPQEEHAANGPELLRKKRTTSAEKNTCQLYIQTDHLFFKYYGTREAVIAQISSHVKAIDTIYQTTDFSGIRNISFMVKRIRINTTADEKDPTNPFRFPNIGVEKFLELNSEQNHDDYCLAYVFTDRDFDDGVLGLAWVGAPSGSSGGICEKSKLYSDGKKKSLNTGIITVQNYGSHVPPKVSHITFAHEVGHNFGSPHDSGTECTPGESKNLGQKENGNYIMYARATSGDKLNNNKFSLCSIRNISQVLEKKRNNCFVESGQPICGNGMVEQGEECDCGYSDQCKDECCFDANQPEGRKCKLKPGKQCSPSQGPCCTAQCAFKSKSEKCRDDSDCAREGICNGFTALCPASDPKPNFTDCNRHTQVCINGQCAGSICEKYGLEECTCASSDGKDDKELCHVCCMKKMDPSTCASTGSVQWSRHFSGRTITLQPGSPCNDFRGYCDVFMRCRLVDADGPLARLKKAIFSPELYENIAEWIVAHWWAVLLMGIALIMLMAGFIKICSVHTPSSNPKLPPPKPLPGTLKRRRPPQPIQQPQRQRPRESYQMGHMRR
# Assay: ADAM-10 enzyme assay (fluorogenic peptide cleavage);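 further: fluorescence from cleavage of a quenched 10-residue DABCYL/EDANS peptide by 5 nM enzyme in HEPES pH 8.0 buffer, 16 hr at room temperature, compounds serially diluted 100 µM to 0.5 nM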
# Format: biochemical
# Details: not given
row,SMILES,IC50 [nM]
1,O=C(NO)[C@H]1CN(S(=O)(=O)CCN2CCCCC2)CCN1S(=O)(=O)c1cc(F)c(Oc2ccc(Cl)cc2)c(F)c1 [Entry 53],< 50
2,CN1CCN(CCS(=O)(=O)N2CCN(S(=O)(=O)c3cc(F)c(Oc4ccc(Cl)cc4)c(F)c3)[C@@H](C(=O)NO)C2)CC1 [Entry 55],< 50
3,CCOC(=O)N1CCN(CCS(=O)(=O)N2CCN(S(=O)(=O)c3cc(F)c(Oc4ccc(Cl)cc4)c(F)c3)[C@@H](C(=O)NO)C2)CC1 [Entry 56],< 50
4,O=C(NO)[C@H]1CN(S(=O)(=O)CCN2CCOCC2)CCN1S(=O)(=O)c1cc(F)c(Oc2ccc(Cl)cc2)c(F)c1 [Entry 57],50 to 1000
5,O=C(NO)[C@H]1CN(C(=O)N2CCOCC2)CCN1S(=O)(=O)c1ccc(-c2cccc(F)c2)nc1 [Entry 58],< 50
6,COCCOC(=O)N1CCN(S(=O)(=O)c2ccc(Oc3ccc4c(c3)CCCC4)nc2)[C@@H](C(=O)NO)C1 [Entry 64],< 50
7,COCCOC(=O)N1CCN(S(=O)(=O)c2ccc(Oc3ccc(F)cc3)nc2)[C@@H](C(=O)NO)C1 [Entry 65],50 to 1000
8,COCCOC(=O)N1CCN(S(=O)(=O)c2ccc(-c3cccc(F)c3)nc2)[C@@H](C(=O)NO)C1 [Entry 66],< 50

# Now from value to molecule:
row,IC50 [nM],SMILES
1,< 50,O=C(NO)[C@H]1CN(S(=O)(=O)c2cccc3cnccc23)CCN1S(=O)(=O)c1cc(F)c(Oc2ccc(Cl)cc2)c(F)c1 [Entry 48]
2,1000 to 20000,CN(C)c1ccc2c(S(=O)(=O)N3CCN(S(=O)(=O)c4cc(F)c(Oc5ccc(Cl)cc5)c(F)c4)[C@@H](C(=O)NO)C3)cccc2c1 [Entry 49]
3,1000 to 20000,CN(C)c1ccc2ccc(S(=O)(=O)N3CCN(S(=O)(=O)c4cc(F)c(Oc5ccc(Cl)cc5)c(F)c4)[C@@H](C(=O)NO)C3)cc2c1 [Entry 50]
4,50 to 1000,O=C(NO)[C@H]1CN(C(=O)c2ccc(-c3ccccc3)cc2)CCN1S(=O)(=O)c1cc(F)c(Oc2ccc(Cl)cc2)c(F)c1 [Entry 51]
5,< 50,O=C(NO)[C@H]1CN(C(=O)Cc2ccncc2)CCN1S(=O)(=O)c1cc(F)c(Oc2ccc(Cl)cc2)c(F)c1 [Entry 52]
6,< 50,CN(C)CCS(=O)(=O)N1CCN(S(=O)(=O)c2cc(F)c(Oc3ccc(Cl)cc3)c(F)c2)[C@@H](C(=O)NO)C1 [Entry 54]
7,< 50,O=C(NO)[C@H]1CN(C(=O)c2cccnc2)CCN1S(=O)(=O)c1cc(F)c(Oc2ccc(Cl)cc2)c(F)c1 [Entry 59]
8,50 to 1000,CN(C)c1cccc2c(S(=O)(=O)N3CCN(S(=O)(=O)c4cc(F)c(Oc5ccc(Cl)cc5)c(F)c4)[C@@H](C(=O)NO)C3)cccc12 [Entry 60]
9,50 to 1000,O=C(NO)[C@H]1CN(S(=O)(=O)Cc2cc(Cl)cc(Cl)c2)CCN1S(=O)(=O)c1cc(F)c(Oc2ccc(Cl)cc2)c(F)c1 [Entry 61]
10,50 to 1000,C=CCN1CCN(S(=O)(=O)c2cc(F)c(Oc3ccc(Cl)cc3)c(F)c2)[C@@H](C(=O)NO)C1 [Entry 62]
11,50 to 1000,O=C(O)CN1CCN(S(=O)(=O)c2cc(F)c(Oc3ccc(Cl)cc3)c(F)c2)[C@@H](C(=O)NO)C1 [Entry 63]

# System: C57/B16 mice, elastase-perfused abdominal aorta
# Assay: Elastase-perfusion mouse model of AAA, aortic diameter
# Format: in vivo
# Details: doxycycline in drinking water, 100 mg/kg/day
# Description: All mice used in the experiment were commercially obtained C57/B16 inbred strain mice. Throughout the experimental course, mice were allowed free access to food and water. Animals were housed in a controlled animal facility, and all mouse care and treatment occurred under approved protocols.
# A total of 89 C57/B16 mice were subjected to transient perfusion of the abdominal aorta according to a protocol known in the art. Briefly, after sedation and preparation, the aorta was approached through a midline laparotomy. The infrarenal aorta was dissected and the diameter was measured under physiologic blood pressure. A segment of infrarenal aorta was isolated and a 5 minute perfusion of this segment was performed through an arteriotomy at 100 mmHg with a solution containing type I porcine pancreatic elastase (PPE 0.16 U/mL). All of the experiments were performed with a single PPE preparation derived from the same commercial source and lot.
# Following aortic perfusion the arteriotomy was repaired, the laparotomy was closed and the animal was allowed to completely recover before returning to its standard housing.
# Following aortic perfusion, animals were placed into one of 5 treatment groups. […] Three different doses of the agent were used, 50 mg/kg/day (n=17), 125 mg/kg/day (n=17), and 250 mg/kg/day (n=18). There were two mice in each group which died following aortic perfusion, and all others were available for analysis. Control animals (n=18) were similarly treated with daily gavage of the Cremophor diluent only. Of these mice, 16 survived the two weeks following aortic perfusion and underwent final aortic measurements and harvest. […] In this group, 4 mice died prior to the two week harvest, and all others were used in the analysis of aneurysm growth.
# Two weeks following elastase perfusion, the mice were again anesthetized; the laparotomy incision was reopened and the final aortic diameter was measured in vivo prior to sacrifice. The animals were humanely sacrificed, and circulating blood and the entire perfused segment of aorta was harvested for RNA extraction, protein extraction or histology.
row,SMILES,animals not reaching the threshold designated for aneurysms (% ΔAD greater than 100%) [%]
1,"C[C@H]1c2cccc(O)c2C(=O)C2=C(O)[C@]3(O)C(=O)C(C(N)=O)=C(O)[C@@H](N(C)C)[C@@H]3[C@@H](O)[C@@H]21 [doxycycline, reference compound]",13

# Same assay, conditions: doxycycline in drinking water, 100 mg/kg/day, n=15, Mean±SE
row,SMILES,mean % ΔAD (percentage increase in aortic diameter at 2 weeks compared to baseline) [%]
1,"C[C@H]1c2cccc(O)c2C(=O)C2=C(O)[C@]3(O)C(=O)C(C(N)=O)=C(O)[C@@H](N(C)C)[C@@H]3[C@@H](O)[C@@H]21 [doxycycline, reference compound]",112.2±2.0
